Laboratory results as given in PubChem BioAssay (NCI).
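Dose response: 5 concentrations. Exposure: 48 h. Format: 96-well plates. Endpoint: linear interpolation; highest concentration if not reached. TGI: total growth inhibition.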

Columns and labels:
Assay in all cases: NCI tumour cell line growth inhibition, 48 h
786-0 renal = test system: 786-0 renal
COLO 205 colon = test system: COLO 205 colon
RXF 393 renal = test system: RXF 393 renal
SK-MEL-28 melanoma = test system: SK-MEL-28 melanoma
SK-OV-3 ovarian = test system: SK-OV-3 ovarian
MCF7 breast = test system: MCF7 breast
MDA-MB-231 breast = test system: MDA-MB-231 breast
MDA-MB-435 = test system: MDA-MB-435
NCI-H522 lung = test system: NCI-H522 lung
OVCAR-5 ovarian = test system: OVCAR-5 ovarian

SMILES	TGI (786-0 renal) [µM]	TGI (COLO 205 colon) [µM]	TGI (RXF 393 renal) [µM]	TGI (SK-MEL-28 melanoma) [µM]	TGI (SK-OV-3 ovarian) [µM]	TGI (MCF7 breast) [µM]	TGI (MDA-MB-231 breast) [µM]	TGI (MDA-MB-435) [µM]	TGI (NCI-H522 lung) [µM]	TGI (OVCAR-5 ovarian) [µM]
CC(=O)O[C@]12CCCCCC1C1(O)C(O)CCC[C@H]12 (stereo partly specified)	> 100	> 100	> 100	> 100	> 100	–	–	–	–	–
CSc1c(C#N)c(N)n2c1C(=O)N(c1ccccc1)C2=S	> 100	78.3	> 100	> 100	> 100	> 100	45.6	> 100	57.7	> 100
COC(=O)c1c2c(cc3c1CC1(C3)Cc3cc4c(c(C(=O)OC)c3C1)CCCC4)CCCC2	> 100	> 100	> 100	–	> 100	> 100	> 100	> 100	> 100	> 100
N#CC(C#N)=CNC(=S)c1ccncc1	> 100	> 100	> 100	> 100	> 100	> 100	> 100	> 100	> 100	> 100
Cc1nn(C(=O)Cc2ccccc2)c2c1C(c1ccc(O)cc1)SC(N)=N2 (stereo unspecified)	> 100	> 100	–	> 100	> 100	> 100	> 100	> 100	> 100	–
C=CC[C@]12C[C@@H](C(=O)OC)N(C(=O)OC)[C@H]1N(S(=O)(=O)c1ccccc1)c1ccccc12	> 100	–	66.9	> 100	> 100	> 100	> 100	> 100	> 100	> 100
C=C[C@@H]1C(CO)=CCC2[C@H]1CCC1C(C)(C)C(=O)CC[C@]21C (stereo partly specified)	> 100	> 100	> 100	> 100	> 100	> 100	–	> 100	> 100	> 100
Clc1ccc(-c2nn3c(-c4ccncc4)nnc3s2)cc1	61.9	> 100	82.1	–	84.9	> 100	> 100	> 100	> 100	> 100
O=C(CNc1ccccc1Cl)Nn1c(-c2ccccc2)nc2ccccc2c1=O	40.2	34.6	36.7	55.9	> 100	31.4	> 10	37.4	> 10	> 10
O=c1c2ccccc2nc2[nH][nH]c(=S)n12	> 100	> 100	–	> 100	> 100	> 100	> 100	> 100	–	> 100
O=C1c2cc3c(cc2CC1Br)CCC3 (stereo unspecified)	3.47	3.85	4.04	8.56	15.9	–	13.9	4.23	3	14.9
CCN(C(=S)N[C@@H](Cc1ccccc1)C(=O)N[C@@H](CC(C)C)C(=O)OC)c1ccccc1	> 100	> 100	> 100	> 100	> 100	> 100	> 100	> 100	> 100	> 100
